Reference: PMC6364417, “Kinase inhibitor library screening identifies synergistic drug combinations effective in sensitive and resistant melanoma cells” (Journal of Experimental & Clinical Cancer Research : CR, 2019)

Assays:
Experiment in all cases: Kinase inhibitor library screening, PrestoBlue cell viability, 1 or 10 μM, 72 h
[1] = tested on: 501Mel cells (parental); conditions: 501Mel Parental
Summary of the method: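 Single-point screen at two doses over three days. Parental and BRAF-inhibitor-resistant sublines (XP: Vemurafenib; GP: Dabrafenib) were assessed by PrestoBlue viability, reported relative to untreated cells.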

[2] = tested on: IGR37-XP cells (Vemurafenib-resistant); conditions: IGR37 XP
[3] = tested on: 501Mel-XP cells (Vemurafenib-resistant); conditions: 501Mel XP
[4] = tested on: IGR37-GP cells (Dabrafenib-resistant); conditions: IGR37 GP
[5] = tested on: IGR37 cells (parental); conditions: IGR37 Parental
[6] = tested on: A375-XP cells (Vemurafenib-resistant); conditions: A375 XP
[7] = tested on: A375-GP cells (Dabrafenib-resistant); conditions: A375 GP
[8] = tested on: 501Mel-GP cells (Dabrafenib-resistant); conditions: 501Mel GP
[9] = tested on: A375 cells (parental); conditions: A375 Parental

O=C(O)[C@]1(Cc2cccc(Nc3nccs3)n2)CC[C@@H](Oc2cccc(Cl)c2F)CC1 [MK-5108 (VX-689)]
cell viability (kinase inhibitor library screening) ([1]; 1μΜ, 72 h): 94.9% | cell viability (kinase inhibitor library screening) ([1]; 10μΜ, 72 h): 74.6% | cell viability (kinase inhibitor library screening) ([2]; 1μΜ, 72 h): 100.4% | cell viability (kinase inhibitor library screening) ([2]; 10μΜ, 72 h): 80.0% | cell viability (kinase inhibitor library screening) ([3]; 1μΜ, 72 h): 72.1% | cell viability (kinase inhibitor library screening) ([3]; 10μΜ, 72 h): 52.0% | cell viability (kinase inhibitor library screening) ([4]; 10μΜ, 72 h): 93.5% | cell viability (kinase inhibitor library screening) ([5]; 1μΜ, 72 h): 98.6% | cell viability (kinase inhibitor library screening) ([5]; 10μΜ, 72 h): 94.9% | cell viability (kinase inhibitor library screening) ([6]; 1μΜ, 72 h): 99.5% | cell viability (kinase inhibitor library screening) ([6]; 10μΜ, 72 h): 68.2% | cell viability (kinase inhibitor library screening) ([7]; 1μΜ, 72 h): 92.6% | cell viability (kinase inhibitor library screening) ([7]; 10μΜ, 72 h): 63.9% | cell viability (kinase inhibitor library screening) ([8]; 1μΜ, 72 h): 83.4% | cell viability (kinase inhibitor library screening) ([8]; 10μΜ, 72 h): 63.6% | cell viability (kinase inhibitor library screening) ([9]; 10μΜ, 72 h): 56.1% | cell viability (kinase inhibitor library screening) ([9]; 1μΜ, 72 h): 91.4%

FC(F)(F)c1ccc(Nc2nc3ccc(Oc4ccnc(-c5ncc(C(F)(F)F)[nH]5)c4)cc3[nH]2)cc1 [Raf265 derivative]
cell viability (kinase inhibitor library screening) ([1]; 10μΜ, in %): 91.6 | cell viability (kinase inhibitor library screening) ([2]; 1μΜ, in %): 106.8 | cell viability (kinase inhibitor library screening) ([2]; 10μΜ, in %): 69.4 | cell viability (kinase inhibitor library screening) ([3]; 1μΜ, in %): 116.2 | cell viability (kinase inhibitor library screening) ([3]; 10μΜ, in %): 77.9 | cell viability (kinase inhibitor library screening) ([4]; 1μΜ, in %): 94.6 | cell viability (kinase inhibitor library screening) ([4]; 10μΜ, in %): 87.0 | cell viability (kinase inhibitor library screening) ([5]; 1μΜ, in %): 104.0 | cell viability (kinase inhibitor library screening) ([5]; 10μΜ, in %): 102.6 | cell viability (kinase inhibitor library screening) ([6]; 10μΜ, in %): 66.1 | cell viability (kinase inhibitor library screening) ([7]; 1μΜ, in %): 97.7 | cell viability (kinase inhibitor library screening) ([7]; 10μΜ, in %): 60.2 | cell viability (kinase inhibitor library screening) ([8]; 10μΜ, in %): 88.7 | cell viability (kinase inhibitor library screening) ([9]; 1μΜ, in %): 104.6 | cell viability (kinase inhibitor library screening) ([9]; 10μΜ, in %): 74.8

COc1ccc(-c2ccc3c(N4CCOC[C@@H]4C)nc(N4CCOC[C@@H]4C)nc3n2)cc1CO [AZD8055]
Cell viability in kinase inhibitor library screening, 501Mel Parental, 1μΜ ([1]; 1μΜ, 72 h, in %): 17.3 | Cell viability in kinase inhibitor library screening, 501Mel Parental, 10μΜ ([1]; 10μΜ, 72 h, in %): 8.1 | Cell viability in kinase inhibitor library screening, IGR37 XP, 10μΜ ([2]; 10μΜ, 72 h): 12.5% | Cell viability in kinase inhibitor library screening, IGR37 XP, 1μΜ ([2]; 1μΜ, 72 h, in %): 34.7 | Cell viability in kinase inhibitor library screening, 501Mel XP, 1μΜ ([3]; 1μΜ, 72 h, in %): 13.9 | Cell viability in kinase inhibitor library screening, 501Mel XP, 10μΜ ([3]; 10μΜ, 72 h, in %): 4.6 | Cell viability in kinase inhibitor library screening, IGR37 GP, 10μΜ ([4]; 10μΜ, 72 h): 29.5% | Cell viability in kinase inhibitor library screening, IGR37 GP, 1μΜ ([4]; 1μΜ, 72 h, in %): 45.1 | Cell viability in kinase inhibitor library screening, IGR37 Parental, 1μΜ ([5]; 1μΜ, 72 h, in %): 29.8 | Cell viability in kinase inhibitor library screening, IGR37 Parental, 10μΜ ([5]; 10μΜ, 72 h, in %): 25.2 | Cell viability in kinase inhibitor library screening, A375 XP, 1μΜ ([6]; 1μΜ, 72 h): 21.6 | Cell viability in kinase inhibitor library screening, A375 XP, 10μΜ ([6]; 10μΜ, 72 h): 17.3 | Cell viability in kinase inhibitor library screening, A375 GP, 1μΜ ([7]; 1μΜ, 72 h): 25.5 | Cell viability in kinase inhibitor library screening, A375 GP, 10μΜ ([7]; 10μΜ, 72 h): 16.6 | Cell viability in kinase inhibitor library screening, 501Mel GP, 1μΜ ([8]; 1μΜ, 72 h, in %): 22.1 | Cell viability in kinase inhibitor library screening, 501Mel GP, 10μΜ ([8]; 10μΜ, 72 h, in %): 11.9 | Cell viability in kinase inhibitor library screening, A375 Parental, 10μΜ ([9]; 10μΜ, 72 h): 19.2 | Cell viability in kinase inhibitor library screening, A375 Parental, 1μΜ ([9]; 1μΜ, 72 h): 23.1

COc1cc(N2CCC(N3CCN(C)CC3)CC2)ccc1Nc1ncc(Cl)c(Nc2ccccc2S(=O)(=O)C(C)C)n1 [TAE684 (NVP-TAE684)]
cell viability (kinase inhibitor library screening) ([1]; 1μΜ, 72 h): 103.2% | cell viability (kinase inhibitor library screening) ([1]; 10μΜ, 72 h): 0.331% | cell viability (kinase inhibitor library screening) ([2]; 1μΜ, 72 h): 67.8% | cell viability (kinase inhibitor library screening) ([2]; 10μΜ, 72 h): 1.0% | cell viability (kinase inhibitor library screening) ([3]; 10μΜ, 72 h): -0.231% | cell viability (kinase inhibitor library screening) ([4]; 1μΜ, 72 h): 84.1% | cell viability (kinase inhibitor library screening) ([4]; 10μΜ, 72 h): 1.7% | cell viability (kinase inhibitor library screening) ([5]; 1μΜ, 72 h): 99.2% | cell viability (kinase inhibitor library screening) ([5]; 10μΜ, 72 h): 4.4% | cell viability (kinase inhibitor library screening) ([6]; 1μΜ, 72 h): 72.8% | cell viability (kinase inhibitor library screening) ([6]; 10μΜ, 72 h): 13.8% | cell viability (kinase inhibitor library screening) ([7]; 1μΜ, 72 h): 61.5% | cell viability (kinase inhibitor library screening) ([7]; 10μΜ, 72 h): 8.3% | cell viability (kinase inhibitor library screening) ([8]; 1μΜ, 72 h): 112.8% | cell viability (kinase inhibitor library screening) ([8]; 10μΜ, 72 h): -0.0599% | cell viability (kinase inhibitor library screening) ([9]; 10μΜ, 72 h): 8.8% | cell viability (kinase inhibitor library screening) ([9]; 1μΜ, 72 h): 76.3%
